# Measurements published in PubChem BioAssay AID1963443 (Molecular Pharmacology Branch, DTP, NCI, 2024).
# System: MDA-MB-231 complex spheroids, growth inhibition
# Assay: Anticancer human tumor MDA-MB-231 cell line growth inhibition [Asc];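 also: spheroids exposed to compounds for 7 days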
# Conditions: for IC50: curve of first compound; for viability, T/C: stronger effect = lower value
# Procedure, shortened: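 Stromal components (HUVEC and hMSC) are co-assembled with the cancer cells into multicellular spheroids. Drugs are then added singly or paired, at concentrations falling by half-log increments from a clinically achievable maximum, capped at 10 microM without known Cmax.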
# [1] = second compound 0.03 µM, first compound 0.0316 µM
# [2] = second compound 0.03 µM, first compound 0.1 µM
# [3] = second compound 0.03 µM, first compound 0.316 µM
# [4] = second compound 0.03 µM, first compound 1 µM
# [5] = second compound 0.0949 µM, first compound 0.0316 µM
# [6] = second compound 0.0949 µM, first compound 0.1 µM
# [7] = second compound 0.0949 µM, first compound 0.316 µM
# [8] = second compound 0.0949 µM, first compound 1 µM
# [9] = second compound 0.3 µM, first compound 0.0316 µM
# [10] = second compound 0.3 µM, first compound 0.1 µM
# [11] = second compound 0.3 µM, first compound 0.316 µM
# [12] = second compound 0.3 µM, first compound 1 µM
# [13] = second compound 0.949 µM, first compound 0.0316 µM
# [14] = second compound 0.949 µM, first compound 0.1 µM
# [15] = second compound 0.949 µM, first compound 0.316 µM
# [16] = second compound 0.949 µM, first compound 1 µM
# [17] = second compound 3 µM, first compound 0.0316 µM
# [18] = second compound 3 µM, first compound 0.1 µM
# [19] = second compound 3 µM, first compound 0.316 µM
# [20] = second compound 3 µM, first compound 1 µM
compound,measurement,setting,value
C#Cc1c(F)ccc2cc(O)cc(-c3ncc4c(N5CC6CCC(C5)N6)nc(OCC56CCCN5CC(F)C6)nc4c3F)c12 (stereo not given) + CCN1C(C(=O)NC23CCC(C(=O)O)(CC2)CC3)C(c2cccc(Cl)c2F)C2(C(=O)Nc3cc(Cl)ccc32)C12CCCCC2,IC50,second compound 0.03 µM,> 10000 nM
same,IC50,second compound 0.0949 µM,8440 nM
same,IC50,second compound 0.3 µM,> 10000 nM
same,IC50,second compound 0.949 µM,> 10000 nM
same,IC50,second compound 3 µM,898 nM
same,"viability, T/C",[1],96.8%
same,"viability, T/C",[2],96.5%
same,"viability, T/C",[3],92.8%
same,"viability, T/C",[4],74.9%
same,"viability, T/C","second compound 0.03 µM, first compound 3.16 µM",63.8%
same,"viability, T/C","second compound 0.03 µM, first compound 10 µM",55.1%
same,"viability, T/C",[5],108%
same,"viability, T/C",[6],98.2%
same,"viability, T/C",[7],94.7%
same,"viability, T/C",[8],70.2%
same,"viability, T/C","second compound 0.0949 µM, first compound 3.16 µM",59.3%
same,"viability, T/C","second compound 0.0949 µM, first compound 10 µM",48.1%
same,"viability, T/C",[9],106%
same,"viability, T/C",[10],107%
same,"viability, T/C",[11],98.8%
same,"viability, T/C",[12],72.5%
same,"viability, T/C","second compound 0.3 µM, first compound 3.16 µM",59.3%
same,"viability, T/C","second compound 0.3 µM, first compound 10 µM",48.5%
same,"viability, T/C",[13],108%
same,"viability, T/C",[14],106%
same,"viability, T/C",[15],103%
same,"viability, T/C",[16],66.2%
same,"viability, T/C","second compound 0.949 µM, first compound 3.16 µM",61.5%
same,"viability, T/C","second compound 0.949 µM, first compound 10 µM",45.8%
same,"viability, T/C",[17],96.7%
same,"viability, T/C",[18],90.5%
same,"viability, T/C",[19],68.8%
same,"viability, T/C",[20],47.4%
same,"viability, T/C","second compound 3 µM, first compound 3.16 µM",43.5%
same,"viability, T/C","second compound 3 µM, first compound 10 µM",36.4%
CNC(C)C(=O)NC1CN(S(=O)(=O)c2cccc(S(=O)(=O)N3CCC4CCC(C(=O)NC(c5ccccc5)c5ccccc5)N4C(=O)C(NC(=O)C(C)NC)C3)c2)CCC2CCC(C(=O)NC(c3ccccc3)c3ccccc3)N2C1=O (stereo not given) + CCN1C(C(=O)NC23CCC(C(=O)O)(CC2)CC3)C(c2cccc(Cl)c2F)C2(C(=O)Nc3cc(Cl)ccc32)C12CCCCC2,IC50,second compound 0.03 µM,< 3.16 nM
same,IC50,second compound 0.0949 µM,< 3.16 nM
same,IC50,second compound 0.3 µM,< 3.16 nM
same,IC50,second compound 0.949 µM,< 3.16 nM
same,IC50,second compound 3 µM,< 3.16 nM
same,"viability, T/C","second compound 0.03 µM, first compound 0.00316 µM",6.71%
same,"viability, T/C","second compound 0.03 µM, first compound 0.01 µM",1.67%
same,"viability, T/C",[1],1.57%
same,"viability, T/C",[2],1.22%
same,"viability, T/C",[3],1.14%
same,"viability, T/C",[4],0.97%
same,"viability, T/C","second compound 0.0949 µM, first compound 0.00316 µM",5.03%
same,"viability, T/C","second compound 0.0949 µM, first compound 0.01 µM",1.98%
same,"viability, T/C",[5],1.66%
same,"viability, T/C",[6],1.78%
same,"viability, T/C",[7],1.27%
same,"viability, T/C",[8],0.74%
same,"viability, T/C","second compound 0.3 µM, first compound 0.00316 µM",5.55%
same,"viability, T/C","second compound 0.3 µM, first compound 0.01 µM",3.61%
same,"viability, T/C",[9],2.08%
same,"viability, T/C",[10],2.17%
same,"viability, T/C",[11],0.84%
same,"viability, T/C",[12],1.46%
same,"viability, T/C","second compound 0.949 µM, first compound 0.00316 µM",3.82%
same,"viability, T/C","second compound 0.949 µM, first compound 0.01 µM",2.39%
same,"viability, T/C",[13],2.37%
same,"viability, T/C",[14],0.77%
same,"viability, T/C",[15],0.84%
same,"viability, T/C",[16],0.96%
same,"viability, T/C","second compound 3 µM, first compound 0.00316 µM",2.23%
same,"viability, T/C","second compound 3 µM, first compound 0.01 µM",1%
same,"viability, T/C",[17],1.14%
same,"viability, T/C",[18],0.61%
same,"viability, T/C",[19],0.68%
same,"viability, T/C",[20],0.75%
Cc1nc(N2CCC3(CC2)COC(C)C3N)c(CO)nc1Sc1ccnc(N)c1Cl (stereo not given) + CCN1C(C(=O)NC23CCC(C(=O)O)(CC2)CC3)C(c2cccc(Cl)c2F)C2(C(=O)Nc3cc(Cl)ccc32)C12CCCCC2,IC50,second compound 0.03 µM,319 nM
same,IC50,second compound 0.0949 µM,337 nM
same,IC50,second compound 0.3 µM,281 nM
same,IC50,second compound 0.949 µM,270 nM
same,IC50,second compound 3 µM,157 nM
same,"viability, T/C","second compound 0.03 µM, first compound 0.00949 µM",95.8%
same,"viability, T/C","second compound 0.03 µM, first compound 0.03 µM",95.4%
same,"viability, T/C","second compound 0.03 µM, first compound 0.0949 µM",96.7%
same,"viability, T/C","second compound 0.03 µM, first compound 0.3 µM",52.7%
same,"viability, T/C","second compound 0.03 µM, first compound 0.949 µM",2.27%
same,"viability, T/C","second compound 0.03 µM, first compound 3 µM",0.7%
same,"viability, T/C","second compound 0.0949 µM, first compound 0.00949 µM",95.7%
same,"viability, T/C","second compound 0.0949 µM, first compound 0.03 µM",95.7%
same,"viability, T/C","second compound 0.0949 µM, first compound 0.0949 µM",87.2%
same,"viability, T/C","second compound 0.0949 µM, first compound 0.3 µM",56%
same,"viability, T/C","second compound 0.0949 µM, first compound 0.949 µM",2.11%
same,"viability, T/C","second compound 0.0949 µM, first compound 3 µM",0.82%
same,"viability, T/C","second compound 0.3 µM, first compound 0.00949 µM",99.6%
same,"viability, T/C","second compound 0.3 µM, first compound 0.03 µM",99%
same,"viability, T/C","second compound 0.3 µM, first compound 0.0949 µM",98.3%
same,"viability, T/C","second compound 0.3 µM, first compound 0.3 µM",47.1%
same,"viability, T/C","second compound 0.3 µM, first compound 0.949 µM",2.58%
same,"viability, T/C","second compound 0.3 µM, first compound 3 µM",0.88%
same,"viability, T/C","second compound 0.949 µM, first compound 0.00949 µM",109%
same,"viability, T/C","second compound 0.949 µM, first compound 0.03 µM",108%
same,"viability, T/C","second compound 0.949 µM, first compound 0.0949 µM",107%
same,"viability, T/C","second compound 0.949 µM, first compound 0.3 µM",44.2%
same,"viability, T/C","second compound 0.949 µM, first compound 0.949 µM",2.18%
same,"viability, T/C","second compound 0.949 µM, first compound 3 µM",0.9%
same,"viability, T/C","second compound 3 µM, first compound 0.00949 µM",91.1%
same,"viability, T/C","second compound 3 µM, first compound 0.03 µM",89.2%
same,"viability, T/C","second compound 3 µM, first compound 0.0949 µM",81.8%
same,"viability, T/C","second compound 3 µM, first compound 0.3 µM",9.35%
same,"viability, T/C","second compound 3 µM, first compound 0.949 µM",1.26%
same,"viability, T/C","second compound 3 µM, first compound 3 µM",0.54%
